Legend:
GPR3 = target: T1, GPR3 (Homo sapiens, UniProt P46089); assay: GPR3 antagonist functional cAMP assay (LANCE Ultra cAMP TR-FRET, CHO cells stably expressing GPR3); type: cell-based
T1 construct: expressed in transfected cells; host or cells: CHO cells
Summary of the method: (§1)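 Stable CHO-GPR6 or CHO-GPR3 cells (10,000/well) in Krebs-Ringer buffer with 0.1% BSA and 150 μM Ro 20-1724 were exposed to compounds for 45 min at 37° C (0.1% DMSO). cAMP read by LANCE Ultra TR-FRET; IC50 from 4-parameter fit normalized to DMSO and reference compounds.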

GPR6 = target: T2, GPR6 (Homo sapiens, UniProt P46095); assay: GPR6 antagonist functional cAMP assay (LANCE Ultra cAMP TR-FRET, CHO cells stably expressing GPR6); type: cell-based
T2 construct: expressed in transfected cells; host or cells: CHO cells
Summary of the method: as §1

[1] = procedure as described in Example 24
[2] = CHO cells stably expressing GPR3, cAMP assay (Example 24)
[3] = CHO cells stably expressing GPR6, cAMP assay (Example 24)

T1 sequence (P46089 whole entry, species assumed): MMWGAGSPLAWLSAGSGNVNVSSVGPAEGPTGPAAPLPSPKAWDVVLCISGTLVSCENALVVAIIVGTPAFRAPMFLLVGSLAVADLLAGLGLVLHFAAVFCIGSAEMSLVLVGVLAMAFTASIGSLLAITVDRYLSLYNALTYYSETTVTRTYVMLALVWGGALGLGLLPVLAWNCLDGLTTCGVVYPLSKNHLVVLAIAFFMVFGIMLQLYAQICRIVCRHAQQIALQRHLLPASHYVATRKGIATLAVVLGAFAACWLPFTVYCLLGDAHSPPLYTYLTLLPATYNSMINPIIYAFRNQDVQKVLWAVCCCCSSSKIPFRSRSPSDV
T2 sequence (P46095 whole entry): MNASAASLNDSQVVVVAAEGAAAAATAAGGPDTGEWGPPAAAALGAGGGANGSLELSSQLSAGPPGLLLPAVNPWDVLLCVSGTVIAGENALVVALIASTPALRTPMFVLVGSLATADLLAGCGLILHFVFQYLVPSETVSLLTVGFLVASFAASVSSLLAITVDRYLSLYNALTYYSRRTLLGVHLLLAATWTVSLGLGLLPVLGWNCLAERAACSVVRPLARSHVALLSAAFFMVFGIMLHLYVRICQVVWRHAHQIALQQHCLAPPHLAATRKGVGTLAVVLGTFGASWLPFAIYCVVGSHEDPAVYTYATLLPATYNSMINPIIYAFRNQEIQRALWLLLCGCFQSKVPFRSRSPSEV

| IC50 (GPR3; [1]) [nM] | IC50 (GPR6; [1]) [nM] | IC50 (GPR3; [2]) [nM] | IC50 (GPR6; [3]) [nM] | Compound |
| --- | --- | --- | --- | --- |
| 1000 to 30000 | 100 to 1000 |  |  | CC(=O)N1CCc2nc(N3CCC(Oc4ccc(F)cc4F)CC3)c(-c3cnn(C)c3)nc2C1 [Compound 44, 1-{2-[4-(2,4-difluorophenoxy)piperidin-1-yl]-3-(1-methyl-1H-pyrazol-4-yl)-5H,6H,7H,8H-pyrido[3,4-b]pyrazin-6-yl}ethan-1-one] |
| 1000 to 30000 | 100 to 1000 |  |  | CC(=O)N1CCc2nc(N3CCC(Oc4ccc(F)cc4F)CC3)c(-c3cc[nH]c3)nc2C1 [Compound 46, 1-{2-[4-(2,4-difluorophenoxy)piperidin-1-yl]-3-(1H-pyrrol-3-yl)-5H,6H,7H,8H-pyrido[3,4-b]pyrazin-6-yl}ethan-1-one] |
| 1000 to 30000 | 100 to 1000 |  |  | CC(=O)N1CCc2nc(N3CCC(Oc4ccc(F)cc4F)CC3)c(-c3ccc(=O)[nH]c3)nc2C1 [Compound 51, 5-{6-acetyl-2-[4-(2,4-difluorophenoxy)piperidin-1-yl]-5H,6H,7H,8H-pyrido[3,4-b]pyrazin-3-yl}-1,2-dihydropyridin-2-one] |
|  |  | 1000 to 30000 | 1000 to 30000 | CC(=O)N1CCc2nc(N3CCC(Oc4ccc(F)cc4F)CC3)c(-c3cccc(F)n3)nc2C1 [Compound 57, 1-{2-[4-(2,4-difluorophenoxy)piperidin-1-yl]-3-(6-fluoropyridin-2-yl)-5H,6H,7H,8H-pyrido[3,4-b]pyrazin-6-yl}ethan-1-one] |

The remaining lines, values behind:

| Compound | IC50 (GPR3; [1]) [nM] | IC50 (GPR6; [1]) [nM] | IC50 (GPR3; [2]) [nM] | IC50 (GPR6; [3]) [nM] |
| --- | --- | --- | --- | --- |
| CC(=O)N1CCc2nc(N3CCC(Oc4ccc(F)cc4F)CC3)c(-c3c(C)nn(C4CCCCO4)c3C)nc2C1 (stereo not drawn) [Compound 47, 1-{2-[4-(2,4-difluorophenoxy)piperidin-1-yl]-3-[3,5-dimethyl-1-(oxan-2-yl)-1H-pyrazol-4-yl]-5H,6H,7H,8H-pyrido[3,4-b]pyrazin-6-yl}ethan-1-one] | 1000 to 30000 | 1000 to 30000 |  |  |
| CC(=O)N1CCc2nc(N3CCC(Oc4ccc(F)cc4F)CC3)c(-c3cccc(N(C)C)n3)nc2C1 [Compound 48, 1-{2-[4-(2,4-difluorophenoxy)piperidin-1-yl]-3-[6-(dimethylamino)pyridin-2-yl]-5H,6H,7H,8H-pyrido[3,4-b]pyrazin-6-yl}ethan-1-one] | 1000 to 30000 | 1000 to 30000 |  |  |
| CC(=O)N1CCc2nc(N3CCC(Oc4ccc(F)cc4F)CC3)c(-c3cccc(C(F)(F)F)n3)nc2C1 [Compound 50, 1-{2-[4-(2,4-difluorophenoxy)piperidin-1-yl]-3-[6-(trifluoromethyl)pyridin-2-yl]-5H,6H,7H,8H-pyrido[3,4-b]pyrazin-6-yl}ethan-1-one] | 1000 to 30000 | 100 to 1000 |  |  |
| Fc1ccc(CN2CCN(c3nc4ccncc4nc3-c3cn[nH]c3)CC2)c(F)c1 [Compound 52, 1-[(2,4-difluorophenyl)methyl]-4-[3-(1H-pyrazol-4-yl)pyrido[3,4-b]pyrazin-2-yl]piperazine] | 1000 to 30000 | 100 to 1000 |  |  |
| CC(=O)N1CCc2nc(N3CCC(Oc4ccc(F)cc4F)CC3)c(-c3ccn(C(=O)OC(C)(C)C)c3)nc2C1 [Compound 53, tert-butyl 3-{6-acetyl-2-[4-(2,4-difluorophenoxy)piperidin-1-yl]-5H,6H,7H,8H-pyrido[3,4-b]pyrazin-3-yl}-1H-pyrrole-1-carboxylate] | 100 to 1000 | 1000 to 30000 |  |  |
| Fc1ccc(OC2CCN(c3nc4ccncc4nc3-c3cnc[nH]3)CC2)c(F)c1 [Compound 54, 4-(2,4-difluorophenoxy)-1-[3-(1H-imidazol-5-yl)pyrido[3,4-b]pyrazin-2-yl]piperidine] | 1000 to 30000 | 1000 to 30000 |  |  |
| CN(c1ccc(F)cc1F)C1CCN(c2nc3ccncc3nc2-c2cn[nH]c2)CC1 [Compound 55, 1-(3-(1H-pyrazol-4-yl)pyrido[3,4-b]pyrazin-2-yl)-N-(2,4-difluorophenyl)-N-methylpiperidin-4-amine] | 1000 to 30000 | 1000 to 30000 |  |  |
| COc1ccnc(-c2nc3c(nc2N2CCC(Oc4ccc(F)cc4F)CC2)CCN(C(C)=O)C3)n1 [Compound 56, 1-{2-[4-(2,4-difluorophenoxy)piperidin-1-yl]-3-(4-methoxypyrimidin-2-yl)-5H,6H,7H,8H-pyrido[3,4-b]pyrazin-6-yl}ethan-1-one] |  |  | 100 to 1000 | 1000 to 30000 |
